Reference: patent publication US20080199520A1, “S-Adenosyl-L-Methionine for Regulating Behavioral Disorders in Pets” (VIRBAC, priority 2005, published 2008)
Where two headings read alike, the source gives them in different places.

Assays:
[1] = tested on: old dogs presenting behavioral disorders associated with CDS; assay: Study of SAMe in old dogs presenting behavioral disorders associated with CDS (Example 1); format: in vivo; details: for dogs showing an improvement in activity level (owners) / mean activity level of the animals as observed by a veterinarian: at least 2.5 mg SAMe per kg per day
Experimental: A study was conducted to show the efficacy of S-adenosyl-L-methionine in old dogs presenting behavioral disorders associated with CDS.
S-adenosyl-L-methionine was administered in the form of tablets containing 10, 50 or 100 mg of SAMe.
15 dogs more than 7 years old were selected with no restrictions on breed, sex or weight. All the dogs presented well-established cognitive disorders associated with CDS (cleanliness problems, disorders of activity-sleep cycle, decrease in activity) which had been observed by their owners and by veterinarians.
Dogs presenting diseases requiring medical treatment were excluded from the study, as were dogs which had been treated with psychotropic drugs in the month preceding the study. Also, to avoid biases in the observations, heart, kidney and liver treatments and psychoactive drugs were not permitted during the study.
During the study the dogs received at least the equivalent of 2.5 mg of SAMe per kg of body weight per day in a single daily administration over a period of 4 months.
The dogs were examined by a veterinarian at the start of the experiment and then every month. The blood parameters were analyzed at each veterinary examination.
Experiment number 1: Measurement of the activity level of the dogs.
Experiment number 2: Measurement of the effect on the sleeping time of the dogs.
Experiment number 3: Evaluation of the effect on the anxiety of the dogs.

[2] = tested on: dogs presenting signs of fear; assay: Effect of the nutritional supplement on behavior and physical signs associated with fear in dogs (Example 2); format: in vivo; details: 7.5 mg SAMe/kg/day oral for one month, then 2.5 mg/kg/day for two months; sum of 6 parameter scores (FIG. 4)
Experimental: Another study was conducted to show the effect of administering to dogs a nutritional supplement based on S-adenosyl-L-methionine on the behavior and physical signs associated with fear.
The nutritional supplement used in this test consisted of tablets containing 10, 50 or 100 mg of SAMe. It was administered to the animals at a loading dose of 7.5 mg of SAMe per kg of body weight per day in a single daily oral administration for one month, and then at a maintenance dose of 2.5 mg of SAMe per kg of body weight per day in a single daily oral administration for the next two months.
15 dogs aged between 6 months and 15 years are selected with no restrictions on breed, sex or weight. In the two months preceding inclusion in the study, all the dogs presented signs of fear associated either with inhibited behavior or, conversely, with exaggerated responses. This type of problem had to have been identified in the dog for more than two months. The “overall fear score” (sum of the individual scores for the various parameters monitored) recorded at the start of the experiment had to be greater than 7, the parameters observed being as follows: • Pupil dilation. Score: 0=normal, 1=increased, 2=complete. • Trembling. Score: 0=none, 1=slight, 2=pronounced. • Exploration. […]

[3] = tested on: old dogs with behavioral disorders; assay: Randomized double-blind placebo-controlled study on reduced mental capacity of old dogs (Example 4); format: in vivo
Experimental: These behavioral disorders manifested themselves as follows: disorientation, decrease in activity, decrease in social interactions, changes in activity-sleep cycle, lack of cleanliness, anxiety.
The dogs were randomly assigned to one of two treatment groups: SAMe or placebo. […]
The dogs were examined by an investigator at the start of the experiment and then at 30 days and 60 days.
The examinations looked at the various behavioral disorders of the animals, which were evaluated on a scale of 0 to 3 according to their intensity, and all the scores were added together to give a “standardized geriatric behavior score” reflecting the severity of the problems observed.

[4] = tested on: old cats with cognitive disorders
Experimental: A study was conducted to show the effects of S-adenosyl-L-methionine on age-related behavioral disorders in cats.
SAMe was administered in the form of tablets containing 90 mg of an S-adenosyl-L-methionine salt (the 1,4-butanedisulfonate).
The tablets were given once a day for a period of 3 consecutive months to comply with the following doses: • Mean dose: 18 (±3.4) mg/kg/d; minimum dose: 12.9 mg/kg/d; maximum dose: 22.5 mg/kg/d.
The blood parameters were analyzed by the veterinarian every month. The owners were also asked to give their opinion on the changes observed in the behavior of their pets.

[5] = after two months of treatment, tosylate salt, 18.5 mg/kg/d
[6] = response to the treatment at D60, n = 17, tosylate salt, 18.5 mg/kg/d
[7] = 3 months, 1,4-butanedisulfonate salt, mean 18 mg/kg/d (FIG. 6)

C[S@@+](CC[C@H](N)C(=O)O)C[C@H]1O[C@@H](n2cnc3c(N)ncnc32)[C@H](O)[C@@H]1O [SAMe, 5′-[[3S-amino-3-carboxypropyl]methyl-(S)-sulfonio]-5′-deoxyadenosine]
dogs showing an improvement in activity level (owners) ([1]; after one month): more than 70% | mean activity level of the animals as observed by a veterinarian ([1]; after one month, tablets, single daily administration, score -1 reduced, 0 unchanged, 1 increased (FIG. 1)): increased significantly | mean activity level of the animals as observed by a veterinarian ([1]; after the first month, up to 4 months): remained above the animals' normal activity | sleeping time of the animals ([1]; daily for 4 months, variations decreased considerably after two months (FIG. 2)): tended to normalize | efficacy as considered by the owners ([1]; end of the study (4 months)): very good | dogs showing an improvement in activity level (owners) ([1]; first two weeks of the treatment): 38% | anxiety of the animals ([1]; throughout the 4-month period, score 0 none to 3 permanent (FIG. 3)): decreased regularly | overall fear score [2]: decreases very substantially | average improvement in terms of activity [3, 5]: 57.1% | average improvement in terms of learning behavior, more particularly cleanliness [3, 5]: 57.1% | average improvement in terms of reactivity [3, 5]: 59.5% | owners' impression of their animals under treatment ([3]; end of the study, majority of the owners): more active and reactive | % of dogs, Good response [3, 6]: 41.2% | % of dogs, No response [3, 6]: 35.3% | % of dogs, Poor response [3, 6]: 23.5% | No. of dogs, Good response [3, 6]: 7 | No. of dogs, No response [3, 6]: 6 | No. of dogs, Poor response [3, 6]: 4 | reduction of the standardized geriatric behavior score ([3]; tosylate salt tablets once a day, average 18.5 mg/kg/d, versus placebo over the study period (FIG. 11)): more significant with SAMe than with placebo | cases with improved elimination behavior [4, 7]: 40% | cats with improved elimination behavior (number) [4, 7]: 2 out of 5 | cats exhibiting ambulation or vocalization periods ([4]; 15 days after the start of the experiment (70% at the start)): 30% | play activity of the cats ([4]; after one month (FIG. 8)): promising net effect | exploratory behavior of the cats ([4]; as from 15 days of treatment (FIG. 7)): perceptible activating effect | cats exhibiting ambulation or vocalization periods ([4]; as from the second month (70% at the start)): no cat | cats with a positive result on play activity ([4]; at 2 months (FIG. 8)): 7 out of 10 | interactions/recognition (owners, other animals) ([4]; cats which initially presented an interaction deficit (FIG. 9)): responded rather well | interactions/recognition (owners, other animals) ([4]; cats which manifested hyperattachment (FIG. 9)): more variable | periods of waking with a start or nightmares ([4]; during the 3-month study, 1,4-butanedisulfonate salt, mean 18 mg/kg/d): No cat | efficacy as considered by the owners ([4]; end of the study (3 months)): very good | cats with a return to a normal day-night cycle ([4]; in one month, 1,4-butanedisulfonate salt tablets, mean dose 18 mg/kg/d once a day (FIG. 5)): 7 out of 10 | cats in which aggressiveness or irritability was eliminated (number) ([4]; in three months (FIG. 10)): 4 out of 5 | manifestations of aggressiveness or irritability eliminated ([4]; in three months, encountered in 50% of the cats (FIG. 10)): 80% | side effects ([4]; in vivo): without causing side effects
